One series deals with A549. In words: Antiproliferative activity against human A549 cells assessed as inhibition of cell growth. The series is classed as functional, cell-based.
For another series, the system named is HeLa. Put plainly: Antiproliferative activity against human HeLa cells assessed as inhibition of cell growth. The series is classed as functional, cell-based.
Another series has as its system MDA-MB-231. Put plainly: Antiproliferative activity against human MDA-MB-231 cells assessed as inhibition of cell growth. The series is classed as functional, cell-based.
The subject of series [1] is K562. In words: Antiproliferative activity against human K562 cells assessed as inhibition of cell growth. The series is classed as functional, cell-based.
Series [2] deals with K562. In words: Induction of apoptosis in human K562 cells assessed as late apoptotic cells at 10 uM by AnnexinV-FITC/propidium iodide staining based flow cytometric analysis (reference value: 5.1%). Type of series: functional.
The test system of series [3] is K562. Put plainly: Induction of apoptosis in human K562 cells assessed as early apoptotic cells at 10 uM by AnnexinV-FITC/propidium iodide staining based flow cytometric analysis (reference value: 2.56%). The series is classed as functional. A general note: Flow cytometry measures light scatter and fluorescence of single cells or particles in a stream.
Series [4] relates to K562. Put plainly: Induction of cell cycle arrest in human K562 cells assessed as accumulation of cells at S phase at 10 uM by flow cytometry analysis (reference value: 21.32%). Type of series: functional.
Series [5] concerns K562. In words: Induction of cell cycle arrest in human K562 cells assessed as accumulation of cells at G2 phase at 10 uM by flow cytometry analysis (reference value: 5.38%). Type of series: functional.
Series [6] concerns K562. Put plainly: Induction of apoptosis in human K562 cells assessed as viable cells at 10 uM by AnnexinV-FITC/propidium iodide staining based flow cytometric analysis (reference value: 86.4%). The following applies: read-out: Activity. The series is classed as functional.
Series [7] concerns K562. Put plainly: Induction of apoptosis in human K562 cells assessed as dead cells at 10 uM by AnnexinV-FITC/propidium iodide staining based flow cytometric analysis (reference value: 5.94%). The series is classed as functional.
Series [8] deals with K562. In words: Induction of cell cycle arrest in human K562 cells assessed as accumulation of cells at G1 phase at 10 uM by flow cytometry analysis (reference value: 73.3%). The series is classed as functional.
The nature of series [9]: Cytotoxicity against human L02 cells assessed as cell viability at 2 ug/ml relative to control. The series is classed as toxicity, cell-based. To be noted: at 2 µg/mL, read-out: Activity.
Series [10] concerns K562. Put plainly: Induction of apoptosis in human K562 cells assessed as increase in cleaved caspase-3 level at 100 uM measured after 48 hrs by human apoptosis array analysis. The series is classed as functional, cell-based.
The subject of series [11] is K562. Put plainly: Induction of apoptosis in human K562 cells assessed as increase in pro-caspase 3 level at 100 uM measured after 48 hrs by human apoptosis array analysis. The series is classed as functional, cell-based.
Series [12] has as its system K562. Put plainly: Induction of apoptosis in human K562 cells assessed as increase in SMAC/Diablo level at 100 uM measured after 48 hrs by human apoptosis array analysis. Type of series: functional, cell-based.
Series [13] deals with K562. In words: Induction of apoptosis in human K562 cells assessed as increase in FADD level at 100 uM measured after 48 hrs by human apoptosis array analysis. The series is classed as functional, cell-based.
In series [14] the test system is K562. In words: Induction of apoptosis in human K562 cells assessed as increase in Bax/Bcl-2 ratio at 100 uM measured after 48 hrs by human apoptosis array analysis. Type of series: functional, cell-based.
The test system of series [15] is K562. In words: Induction of apoptosis in human K562 cells assessed as increase in HTRA2/omi level at 100 uM measured after 48 hrs by human apoptosis array analysis. The series is classed as functional, cell-based.

From ChEMBL document CHEMBL5104159, “Synthesis and antitumor activity of a series of novel N-aryl-5-(2,2,2-trifluoroethoxy)-1,5-dihydro-2H-pyrrol-2-ones derivatives” (Bioorg Med Chem Lett, 2022) come the findings set out here.

Counter-ions that a name gives are not always drawn. Calls of active or inactive are those of the source. No cut-off for these calls is given here.

The term IC50 denotes the midpoint of a concentration-inhibition curve.

For the compound `O=C1C=CC(OCC(F)(F)F)N1c1ccc([N+](=O)[O-])cc1` (stereo unspecified), the half-inhibitory concentration (IC50) is 3.27 µM in the series on A549, 2.38 µM in the series on HeLa, 2.83 µM in the series on MDA-MB-231 and 1.53 µM in the series on K562 [1].

For the compound `Cc1ccc(N2C(=O)C=CC2OCC(F)(F)F)cc1` (stereo unspecified), the IC50 in the series with A549 came to 13.7 µM; with HeLa, 9.38 µM; with MDA-MB-231, 15.8 µM; in the series with K562 [1], 7.14 µM.

Take `COc1ccc(/C=C\c2cc(OC)c(OC)c(OC)c2)cc1O` [COMBRETASTATIN A4]: the Activity in the series with K562 [2] was determined as 22.2%; in the series on K562 [3], 43.7%; in the series on K562 [4] it was 30.46%; in the series on K562 [5], 47.61%; in the series on K562 [7] it was 1.36%; in the series on K562 [8] it was 21.92%. Also, the viability at 10 µM in the series on K562 [6] is 32.7%.

For the compound `COc1cccc2c1C(=O)c1c(O)c3c(c(O)c1C2=O)C[C@@](O)(C(=O)CO)C[C@@H]3O[C@H]1C[C@H](N)[C@H](O)[C@H](C)O1` [DOXORUBICIN HYDROCHLORIDE], the half-inhibitory concentration (IC50) with A549 stood at 0.15 µM; with HeLa, 1.07 µM; in the series on K562 [1], 0.34 µM.

Consider `O=C1C=CC(OCC(F)(F)F)N1c1ccc(F)c(Cl)c1` (stereo unspecified), for which the viability at 2 ug/ml in [9] was found to be 58%. Besides, the IC50 in the series on A549 worked out at 7.69 µM; in the series on HeLa it was 3.11 µM; in the series with MDA-MB-231 it was 3.44 µM; in the series on K562 [1], 6.32 µM.

Turning to `O=C1C=CC(OCC(F)(F)F)N1c1ccccc1` (stereo unspecified), the half-inhibitory concentration (IC50) in the series on A549 was 23.4 µM; in the series with HeLa, above 100 µM; in the series on MDA-MB-231, 15.3 µM; with K562 [1] it was 24.6 µM.

As for `O=C1C=CC(OCC(F)(F)F)N1c1ccc(C(F)(F)F)cc1` (stereo unspecified), the IC50 was 8.39 µM in the series with A549, 36.2 µM with HeLa, 2.3 µM in the series with MDA-MB-231 and 13.1 µM with K562 [1].

Consider `O=C1C=CC(OCC(F)(F)F)N1c1ccccc1F` (stereo unspecified), for which the IC50 in the series on A549 is 44.9 µM; in the series with HeLa, 19.2 µM; in the series with MDA-MB-231, 20.6 µM; with K562 [1], 12 µM.

Consider `O=C1C=CC(OCC(F)(F)F)N1c1cc(Cl)cc(Cl)c1` (stereo unspecified), for which the 50% inhibitory concentration (IC50) was 1.63 µM in the series with A549, 5.92 µM with HeLa, 2.43 µM with MDA-MB-231 and 1.64 µM in the series on K562 [1].

On to `O=C1C=CC(OCC(F)(F)F)N1c1ccc(Br)cc1` (stereo unspecified), for which the IC50 came to 6.96 µM with A549, 7.06 µM in the series on HeLa, 7.57 µM in the series on MDA-MB-231 and 3.27 µM with K562 [1].

For `CC(C)(C)c1ccc(N2C(=O)C=CC2OCC(F)(F)F)cc1` (stereo unspecified), the Activity in the series on K562 [2] worked out at 22.8%; in the series with K562 [3], 33.3%; with K562 [4] it was 0.98%; in the series with K562 [5] it was 80.18%; in the series with K562 [7], 2.4%; with K562 [8], 18.84%. The outcome in the series with K562 [10], with K562 [11], in the series with K562 [12], in the series with K562 [13], with K562 [14] and with K562 [15] was Active. Besides, the viability at 2 ug/ml in series [9] was determined as 81%. In addition, the IC50 with A549 amounted to 8.5 µM; in the series on HeLa, 18.1 µM; with MDA-MB-231, 1.86 µM; in the series on K562 [1], 0.07 µM. Moreover, the viability at 10 µM in the series on K562 [6] was found to be 41.5%.

As to `O=C1C=CC(OCC(F)(F)F)N1c1cc(F)cc(F)c1` (stereo unspecified), the Activity with K562 [2] stood at 22.3%; in the series with K562 [3], 25.5%; in the series on K562 [4], 30.58%; with K562 [5], 54.21%; in the series on K562 [7], 2.26%; with K562 [8] it was 15.21%. The viability at 2 ug/ml in series [9] is 66%. Moreover, the IC50 with A549 is 5 µM; with HeLa, 8.46 µM; in the series with MDA-MB-231, 7.84 µM; with K562 [1], 0.52 µM. Besides, the viability at 10 µM with K562 [6] turned out to be 50%.

As to `O=C1c2c(O)ccc(O)c2C(=O)c2c(NCCNCCO)ccc(NCCNCCO)c21` [MITOXANTRONE], the IC50 stood at 0.07 µM in the series on A549, 0.04 µM in the series with HeLa and 0.14 µM in the series on K562 [1].

Consider `CCc1ccc(N2C(=O)C=CC2OCC(F)(F)F)cc1` (stereo unspecified), for which the IC50 in the series with A549 stood at 8.09 µM; in the series with HeLa, 6.51 µM; in the series with MDA-MB-231, 7.84 µM; with K562 [1] it was 4.47 µM.

With `O=C1C=CC(OCC(F)(F)F)N1c1ccc(Cl)cc1F` (stereo unspecified), the half-inhibitory concentration (IC50) in the series on A549 came out at 6.63 µM; in the series on HeLa, 8.32 µM; with MDA-MB-231 it was 6.1 µM; in the series with K562 [1], 6.21 µM.

With `CC(C)c1ccc(N2C(=O)C=CC2OCC(F)(F)F)cc1` (stereo unspecified), the 50% inhibitory concentration (IC50) was determined as 9.57 µM in the series with A549, 5.8 µM in the series on HeLa, 6.64 µM in the series on MDA-MB-231 and 6.62 µM in the series with K562 [1].

As for `O=C1C=CC(OC(C(F)(F)F)C(F)(F)F)N1c1ccc(Cl)cc1` (stereo unspecified), the IC50 turned out to be 4.3 µM with A549, 1.89 µM in the series with HeLa, 2.41 µM with MDA-MB-231 and 4.48 µM with K562 [1].

For the compound `CC(C)NC1CC(=O)N(c2ccc(F)c(Cl)c2)C1OCC(F)(F)F` (stereo unspecified), the viability at 2 ug/ml in series [9] amounted to 102%. In addition, the IC50 in the series on A549 is above 100 µM; in the series with HeLa, 6.61 µM; in the series on MDA-MB-231 it was above 100 µM; in the series with K562 [1], 10.5 µM.

Consider `COC(=O)c1ccc(N2C(=O)C=CC2OCC(F)(F)F)cc1` (stereo unspecified), for which the concentration for half-maximal inhibition (IC50) in the series on A549 was determined as 8.17 µM; in the series on HeLa, 5.7 µM; with MDA-MB-231, 12.1 µM; in the series with K562 [1], 14.7 µM.
